Data: patent publication US20250304537A1 (Repare Therapeutics Inc., priority 2022, published 2025)
Read-outs that look alike come from different tables or passages of the source.

Assays:
[1] = biological target: recombinant human Myt1 (full length PKMYT1) (Homo sapiens (Human), UniProt Q99640); test: Recombinant human Myt1 kinase assay (ADP-Glo); assay type: biochemical; conditions: 10 μM ATP
Summary of the method: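 ADP-Glo luminescence measured ATP hydrolysis by recombinant full-length PKMYT1 (18 nM) after 60 min at 30 °C with 10 μM ATP. Compounds in 0.5% DMSO were added to the enzyme 15 min before ATP, at 22 °C, in HEPES/MgCl2/MnCl2 buffer. IC50 and percent maximal inhibition were derived.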

[2] = system: PKMYT1 (CDK1 pThr14) in FUOV1 cells; test: PKMYT1 cell-based activity assay, CDK1 pThr14 AlphaLISA in FUOV1 cells; conditions: read-out: FUOV-1 CDK1 pThr14 IC50
Summary of the method: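 IC50 was derived from AlphaLISA signal (excitation 680 nm, emission 615 nm) for phospho-Thr14 CDK1 in lysates. The detection antibodies were rabbit anti-pThr14 and mouse anti-total CDK1, each at 5 nM. FUOV1 ovarian cells were exposed to compound for 2 hours before lysis.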

Chain of recombinant human Myt1 (full length PKMYT1) (Q99640 whole entry): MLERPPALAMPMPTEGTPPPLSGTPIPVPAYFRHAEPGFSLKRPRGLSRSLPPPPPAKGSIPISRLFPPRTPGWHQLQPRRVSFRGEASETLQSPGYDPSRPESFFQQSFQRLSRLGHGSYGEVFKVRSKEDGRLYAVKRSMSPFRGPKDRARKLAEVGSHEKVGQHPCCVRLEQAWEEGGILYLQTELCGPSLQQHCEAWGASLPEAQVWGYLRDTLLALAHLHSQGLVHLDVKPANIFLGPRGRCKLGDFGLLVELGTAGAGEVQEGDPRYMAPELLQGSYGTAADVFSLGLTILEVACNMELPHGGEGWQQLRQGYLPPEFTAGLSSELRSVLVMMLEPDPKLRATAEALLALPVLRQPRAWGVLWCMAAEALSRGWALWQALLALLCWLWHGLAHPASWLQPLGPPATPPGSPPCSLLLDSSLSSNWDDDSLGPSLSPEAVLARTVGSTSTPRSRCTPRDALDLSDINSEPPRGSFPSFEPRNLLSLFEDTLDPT

Structure (SMILES)	IC50 [1]	IC50 ([2]; 2 h, 2 h incubation)	IC50 ([2]; 2 h incubation)	IC50 ([2]; 2 h, 2 h compound incubation)	IC50 ([2]; 2 h, 2 hours with compound)
Cc1ccc2[nH]ncc2c1-c1cc(-c2ccnc(OCc3ncccn3)n2)nc(C(N)=O)c1N [Compound 251]	3 nM		46 nM		
Cc1ccc(O)c(C)c1-c1cc(-c2cncs2)nc(C(N)=O)c1N [Compound 90]	3 nM		58 nM		
Cc1ccc2[nH]ncc2c1-c1nc(-c2cc(F)c(F)cc2NC(=O)C2(C#N)CC2)nc(C(N)=O)c1N [Compound 477]	3 nM			26 nM	
Cc1ccc2[nH]ncc2c1-c1nc(-c2cccnc2N[C@@H]2CCO[C@H](C)C2)nc(C(N)=O)c1N [Compound 603]	4 nM			25 nM	
CCC(COc1nccc(-c2cc(-c3c(C)ccc4[nH]ncc34)c(N)c(C(N)=O)n2)n1)OC (centres unmarked) [Compound 302]	4 nM	23 nM			
Cc1ccc2[nH]ncc2c1-c1cc(-c2cccc(OCc3cscn3)n2)nc(C(N)=O)c1N [Compound 278]	5 nM	158 nM			
Cc1ccc(O)c(C)c1-c1cc(-c2ccns2)nc(C(N)=O)c1N [Compound 38]	3 nM	60 nM			
Cc1ccc(O)c(C)c1-c1cc(-c2cnccn2)cc(C(N)=O)c1N [Compound 84]	10 nM	357 nM			
Cc1ccc(O)c(C)c1-c1cc(-c2ccncn2)nc(C(N)=O)c1N [Compound 79]	8 nM		90 nM		
Cc1ccc(O)c(C)c1-c1cc(-c2ncccn2)cc(C(N)=O)c1N [Compound 78]	9 nM	326 nM			
Cc1ccc2[nH]ncc2c1-c1nc(-c2cc(F)c(F)cc2NC(=O)C2(C)CCN(C)C2)nc(C(N)=O)c1N (centres unmarked) [Compound 484]	7 nM			23 nM	
Cc1ccc2[nH]ncc2c1-c1cc(-c2ccnc(OC[C@H](N)c3ccccc3)n2)nc(C(N)=O)c1N [Compound 342]	3 nM	6 nM			
Cc1ccc2[nH]ncc2c1-c1nc(-c2ccccc2NCC(F)F)cc(C(N)=O)c1N [Compound 412]	4 nM			223 nM	
Cc1ccc2[nH]ncc2c1-c1nc(-c2cccnc2NC(C)(C)C2CCCO2)nc(C(N)=O)c1N (centres unmarked) [Compound 881]	< 3 nM				789 nM
Cc1ccc2[nH]ncc2c1-c1cc(-c2cccc(OCCN3CCCC3)n2)nc(C(N)=O)c1N [Compound 180]	10 nM	99 nM			
Cc1cccc(-c2cc(-c3c(C)ccc(O)c3C)c(N)c(C(N)=O)n2)n1 [Compound 83]	6 nM	188 nM			
Cc1ccc2[nH]ncc2c1-c1nc(-c2cc(F)cnc2NC2CCOC(C(F)(F)F)C2)nc(C(N)=O)c1N (centres unmarked) [Compound 873]	19 nM				862 nM
Cc1ccc2[nH]ncc2c1-c1cc(-c2ccnc(OC3CNC3)n2)nc(C(N)=O)c1N [Compound 194]	10 nM	476 nM			
Cc1cccc(NC(=O)C2(C)CC2)c1-c1nc(C(N)=O)c(N)c(-c2c(C)ccc3[nH]ncc23)n1 [Compound 457]	516 nM			> 10000 nM	
Cc1ccc(O)c(C)c1-c1cc(-c2nc3ccccc3s2)nc(C(N)=O)c1N [Compound 58]	5 nM		387 nM		
Cc1ccc2[nH]ncc2c1-c1cc(-c2ccnc(OCC3CCCO3)n2)nc(C(N)=O)c1N (centres unmarked) [Compound 211]	7 nM	184 nM			
Cc1ccc(O)c(C)c1-c1nc(-c2ccnnc2)cc(C(N)=O)c1N [Compound 88]	7 nM		401 nM		
COc1cccc(-c2cc(-c3c(C)ccc(O)c3C)c(N)c(C(N)=O)n2)n1 [Compound 66]	2 nM		168 nM		
Cc1ccc(O)c(C)c1-c1cc(-c2nc3ccccc3o2)nc(C(N)=O)c1N [Compound 56]	7 nM	373 nM			
Cc1ccc2[nH]ncc2c1-c1cc(-c2cccc(OCC3COC3)n2)nc(C(N)=O)c1N [Compound 268]	9 nM	261 nM			
Cc1ccc2[nH]ncc2c1-c1cc(-c2cccc(O[C@H](C)c3ncccn3)n2)nc(C(N)=O)c1N [Compound 254]	5 nM	204 nM			
Cc1ccc(O)c(C)c1-c1cc(-c2cncs2)nc(C(N)=O)c1N [Compound 82]	7 nM	107 nM			

The next lines start with the values.

IC50 [1]	IC50 ([2]; 2 h, 2 h incubation)	IC50 ([2]; 2 h incubation)	IC50 ([2]; 2 h, 2 h compound incubation)	IC50 ([2]; 2 h, 2 hours with compound)	Structure (SMILES)
6 nM	56 nM				COCC(=O)Nc1ccccc1-c1nc(C(N)=O)c(N)c(-c2c(C)ccc3[nH]ncc23)n1 [Compound 332, 5-amino-2-(2-(2-methoxyacetamido)phenyl)-6-(5-methyl-1H-indazol-4-yl)pyrimidine-4-carboxamide]
42 nM	390 nM				Cc1ccc2[nH]ncc2c1-c1cc(-c2cccnn2)nc(C(N)=O)c1N [Compound 191]
7 nM			112 nM		Cc1ccc2[nH]ncc2c1-c1nc(-c2ccccc2NC(=O)C23CC(F)(C2)C3)nc(C(N)=O)c1N [Compound 448]
122 nM			2460 nM		Cc1ccc2[nH]ncc2c1-c1nc(-c2ccccc2C(F)F)nc(C(N)=O)c1N [Compound 414]
139 nM			> 10000 nM		Cc1ccc2[nH]ncc2c1-c1nc(-c2ccccc2NC(=O)C(C)c2ccccc2)nc(C(N)=O)c1N (centres unmarked) [Compound 425]
137 nM	820 nM				NC(=O)c1nc(-c2ccccc2)nc(-c2cc(F)cc3[nH]ncc23)c1N [Compound 122]
26 nM	570 nM				Cc1cccc(-c2nc(C(N)=O)c(N)c(-c3c(C)ccc4[nH]ncc34)n2)c1 [Compound 101]
8 nM			8 nM		Cc1ccc2[nH]ncc2c1-c1nc(-c2ccccc2N[C@H](C)C(F)(F)F)nc(C(N)=O)c1N [Compound 430]
10 nM			397 nM		Cc1ccc2[nH]ncc2c1-c1nc(-c2cccnc2Nc2ccccc2F)nc(C(N)=O)c1N [Compound 610]
2 nM		11 nM			Cc1ccc2[nH]ncc2c1-c1cc(-c2cccc(OC[C@H](N)c3ccccc3)n2)nc(C(N)=O)c1N [Compound 276]
22 nM	1070 nM				Cc1ccc2[nH]ncc2c1-c1nc(-c2ccccc2)nc(C(N)=O)c1N [Compound 65]
4 nM			9 nM		CC1(C(=O)Nc2ccccc2-c2nc(C(N)=O)c(N)c(-c3c(Cl)ccc4[nH]ncc34)n2)CC1 [Compound 410]
2 nM			36 nM		Cc1ccc2[nH]ncc2c1-c1nc(-c2ccccc2NCC(F)F)nc(C(N)=O)c1N [Compound 400, 5-amino-2-(2-((2,2-difluoroethyl)amino)phenyl)-6-(5-methyl-1H-indazol-4-yl)pyrimidine-4-carboxamide]
4 nM			179 nM		Cc1ccc2[nH]ncc2c1-c1nc(-c2cccnc2Nc2cccnc2C)nc(C(N)=O)c1N [Compound 623]
5 nM			152 nM		Cc1ccc2[nH]ncc2c1-c1nc(-c2cccc3cnsc23)nc(C(N)=O)c1N [Compound 396]
20 nM	860 nM				Cc1ccc2[nH]ncc2c1-c1cc(-c2cnccn2)nc(C(N)=O)c1N [Compound 190]

IC50 [1]	IC50 ([2]; 2 h, 2 h incubation)	IC50 ([2]; 2 h incubation)	IC50 ([2]; 2 h, 2 h compound incubation)	IC50 ([2]; 2 h, 2 hours with compound)	Structure (SMILES)
3 nM	136 nM				Cc1ccc2[nH]ncc2c1-c1cc(-c2cccc(N[C@H](CO)c3ccccc3)n2)nc(C(N)=O)c1N [Compound 274]
8 nM			278 nM		Cc1ccc2[nH]ncc2c1-c1nc(-c2ccccc2NC(=O)C2(C)CC2(Cl)Cl)nc(C(N)=O)c1N (centres unmarked) [Compound 463]
10100 nM			> 10000 nM		Cc1ccc2[nH]ncc2c1-c1nc(-c2ccccc2S(=O)(=O)NC(C)(C)C)nc(C(N)=O)c1N [Compound 792]
6 nM			158 nM		Cc1ccc2[nH]ncc2c1-c1nc(-c2cccc(F)c2NC(=O)C2(C)CC2)nc(C(N)=O)c1N [Compound 456]
6 nM			80 nM		Cc1ccc2[nH]ncc2c1-c1nc(-c2ccccc2NC(=O)C2(C3CC3)CC2)nc(C(N)=O)c1N [Compound 478]
16 nM	1700 nM				Cc1ccc2[nH]ncc2c1-c1cc(-c2ccnnc2)nc(C(N)=O)c1N [Compound 95]
53 nM			641 nM		CCOc1ccccc1-c1nc(C(N)=O)c(N)c(-c2c(C)ccc3[nH]ncc23)n1 [Compound 794]
19 nM	462 nM				Cc1ccc2[nH]ncc2c1-c1nc(-c2cccc(N3CCOCC3)c2)nc(C(N)=O)c1N [Compound 102]
12 nM			540 nM		Cc1ccc2[nH]ncc2c1-c1nc(-c2cccnc2N)nc(C(N)=O)c1N [Compound 469]
4 nM			36 nM		Cc1ccc2[nH]ncc2c1-c1nc(-c2ccccc2N[C@@H](C)C(F)(F)F)nc(C(N)=O)c1N [Compound 429]
6 nM	278 nM				Cc1ccc2[nH]ncc2c1-c1cc(-c2ccnc(Oc3ccccc3)n2)nc(C(N)=O)c1N [Compound 173]
10 nM			825 nM		Cc1ccc2[nH]ncc2c1-c1nc(-c2ccccc2NC(=O)c2cccc(F)c2)nc(C(N)=O)c1N [Compound 460]
13 nM	346 nM				Cc1ccc2[nH]ncc2c1-c1cc(-c2ccnc(Sc3ccccc3)n2)nc(C(N)=O)c1N [Compound 177, 3-amino-4-(5-methyl-1H-indazol-4-yl)-6-(2-(phenylthio)pyrimidin-4-yl)picolinamide]
21 nM			22 nM		Cc1ccc2[nH]ncc2c1-c1nc(-c2ccc(F)cc2Nc2ncccc2Cl)nc(C(N)=O)c1N [Compound 611]
11 nM	567 nM				Cc1ccc2[nH]ncc2c1-c1cc(-c2ccccn2)nc(C(N)=O)c1N [Compound 87]
